Test results published in ChEMBL document CHEMBL1136408, “Structure-activity and crystallographic analysis of benzophenone derivatives-the potential anticancer agents” (Bioorg Med Chem Lett, 2003).

Experiments:
[1] = system: CPT30 cell line; assay: Inhibitory concentration against camptothecin (CPT) resistant cell line using tetrazolium dye reduction assay (MTT); assay type: functional, cell-based; settings: Homo sapiens
[2] = system: HONE1 cell line; assay: Inhibitory concentration against human NPC cancer cell line using tetrazolium dye reduction assay (MTT); assay type: functional, cell-based
[3] = system: KB; assay: Inhibitory concentration against camptothecin (CPT) resistant cell line (KB-100) using tetrazolium dye reduction assay (MTT); assay type: functional, cell-based; settings: Homo sapiens
[4] = system: KB; assay: Inhibitory concentration against taxol resistant cell line (KBs5) at a concentration of 50 nM using tetrazolium dye reduction assay (MTT); assay type: functional, cell-based; settings: Homo sapiens
[5] = system: KB; assay: Inhibitory concentration against VP16 resistant cell line (KB-7D) using tetrazolium dye reduction assay (MTT); assay type: functional, cell-based; settings: Homo sapiens
[6] = system: KB; assay: Inhibitory concentration against vincristine-resistant cell line (KB-Vin 10) using tetrazolium dye reduction assay (MTT); assay type: functional, cell-based; settings: Homo sapiens
[7] = system: KB; assay: Inhibitory concentration against human oral cancer cell line (KB) using tetrazolium dye reduction assay (MTT); assay type: functional, cell-based
[8] = system: KB 3-1; assay: Compound was tested for cell arrest at G2/M phase at 100 nM concentration in KB human cancer cells; assay type: functional; settings: read-out: Inhibition
[9] = system: KB 3-1; assay: Compound was tested for cell arrest at G2/M phase at 25 nM concentration in KB human cancer cells; assay type: functional; settings: read-out: Inhibition
[10] = system: KB 3-1; assay: Compound was tested for cell arrest at G2/M phase at 50 nM concentration in KB human cancer cells; assay type: functional; settings: read-out: Inhibition
[11] = system: KB 3-1; assay: Compound was tested for cell arrest at Go/G1 phase at 25 nM concentration in KB human cancer cells; assay type: functional; settings: read-out: Inhibition
[12] = system: KB 3-1; assay: Compound was tested for cell arrest at Go/G1 phase at 50 nM concentration in KB human cancer cells; assay type: functional; settings: read-out: Inhibition
[13] = system: KB 3-1; assay: Compound was tested for cell arrest at S phase at 100 nM concentration in KB human cancer cells; assay type: functional; settings: read-out: Inhibition
[14] = system: KB 3-1; assay: Compound was tested for cell arrest at S phase at 25 nM concentration in KB human cancer cells; assay type: functional; settings: read-out: Inhibition
[15] = system: KB 3-1; assay: Compound was tested for cell arrest at sub-G1 phase at 100 nM concentration in KB human cancer cells; assay type: functional; settings: read-out: Inhibition
[16] = system: KB 3-1; assay: Compound was tested for cell arrest at sub-G1 phase at 25 nM concentration in KB human cancer cells; assay type: functional; settings: for Percent of cells arrested in sub-G1 phase at 0.025 µM: Homo sapiens, KB 3-1, read-out: Inhibition
[17] = system: KB 3-1; assay: Compound was tested for cell arrest at sub-G1 phase at 50 nM concentration in KB human cancer cells; assay type: functional; settings: read-out: Inhibition
[18] = system: KB 3-1; assay: Compound was tested for cell arrest at Go/G1 phase at 100 nM concentration in KB human cancer cells; assay type: functional; settings: read-out: Inhibition
[19] = system: KB 3-1; assay: Compound was tested for cell arrest at S phase at 50 nM concentration in KB human cancer cells; assay type: functional; settings: read-out: Inhibition

SMILES	IC50 [3] [µM]	IC50 [4] [µM]	IC50 [5] [µM]	IC50 [6] [µM]	IC50 [7] [µM]	IC50 [1] [µM]	IC50 [2] [µM]	percent of cells arrested in G2/M phase at 0.1 µM [8] [%]	percent of cells arrested in G2/M phase at 0.025 µM [9] [%]	Cells arrested in G2/M phase (%) at 0.05 µM [10] [%]	percent of cells in G0/G1 phase at 0.025 µM [11] [%]	% cells in G0/G1 phase at 0.05 µM [12] [%]	Cells arrested in S phase at 0.1 µM [13] [%]	Cells arrested in S phase (%) at 0.025 µM [14] [%]	Percent of cells in sub-G1 phase at 0.1 µM [15] [%]	Percent of cells arrested in sub-G1 phase at 0.025 µM [16] [%]	Cells in sub-G1 phase at 0.05 µM [17] [%]	percent cells arrested in G0/G1 phase at 0.1 µM [18] [%]	percent of cells arrested in S phase at 0.05 µM [19] [%]	Percent of cells arrested in sub-G1 phase [16] [%]
COc1cc(C(=O)c2cc(Cl)ccc2O)cc(OC)c1OC	4.07	4.55	5.45	8.34	5.46	5	6.11	16	18.3	18.9	61.8	59.4	11.8	14.6	26.5	5.3	5.7	45.4	15.9	–
COc1ccc(/C=C\c2cc(OC)c(OC)c(OC)c2)cc1O [COMBRETASTATIN A4]	0.0073	0.007	0.0079	0.0095	0.0062	0.0069	0.0065	72.3	61.6	63.2	8.9	9.3	10.6	11	11.6	18.3	16.8	5.2	10.6	–
CNc1ccc(Cl)cc1C(=O)c1cc(OC)c(OC)c(OC)c1	7.16	2.29	5.41	5.85	6.08	5.35	5.14	–	–	–	–	–	–	–	–	–	–	–	–	–

More lines, in order of falling IC50 [3], values ahead:

IC50 [3] [µM]	IC50 [4] [µM]	IC50 [5] [µM]	IC50 [6] [µM]	IC50 [7] [µM]	SMILES	IC50 [1] [µM]	IC50 [2] [µM]	percent of cells arrested in G2/M phase at 0.1 µM [8] [%]	percent of cells arrested in G2/M phase at 0.025 µM [9] [%]	Cells arrested in G2/M phase (%) at 0.05 µM [10] [%]	percent of cells in G0/G1 phase at 0.025 µM [11] [%]	% cells in G0/G1 phase at 0.05 µM [12] [%]	Cells arrested in S phase at 0.1 µM [13] [%]	Cells arrested in S phase (%) at 0.025 µM [14] [%]	Percent of cells in sub-G1 phase at 0.1 µM [15] [%]	Percent of cells arrested in sub-G1 phase at 0.025 µM [16] [%]	Cells in sub-G1 phase at 0.05 µM [17] [%]	percent cells arrested in G0/G1 phase at 0.1 µM [18] [%]	percent of cells arrested in S phase at 0.05 µM [19] [%]	Percent of cells arrested in sub-G1 phase [16] [%]
0.156	0.071	0.104	0.0972	0.0904	COc1cc(C(=O)c2cc(Cl)ccc2N)cc(OC)c1OC	0.0603	0.0645	73.2	17.3	17.3	61.7	61.7	7.1	14.3	13.9	–	6.4	5.7	14.6	6.5
0.0348	0.184	0.18	0.0341	0.129	COc1ccc(C(=O)c2cc(OC)c(OC)c(OC)c2)cc1O [PHENSTATIN]	0.0372	0.138	73.5	39.6	63.9	17.6	7.6	7.7	9.9	13	32.9	17.8	5.6	10.5	–
0.0225	0.0347	0.0381	0.0486	0.0385	COc1ccc(N)c(C(=O)c2cc(OC)c(OC)c(OC)c2)c1	0.041	0.0592	–	–	–	–	–	–	–	–	–	–	–	–	–
0.0189	0.0256	0.0293	0.0458	0.0258	COc1ccc(C(=O)c2cc(OC)c(OC)c(OC)c2)c(N)c1	0.0373	0.0358	–	–	–	–	–	–	–	–	–	–	–	–	–
